Structures can show the parent of a compound that is named as a salt.
How the values were obtained:
E. cloacae 293HT4 (AmpC) = assay: MIC of ceftazidime alone or with inhibitor, micro-dilution in liquid medium, strain 293HT4; format: cell-based; conditions: 24 h; for MIC of CAZ in combination with inhibitor (CAZ-Inhibitor): inhibitor at constant 4 μg/mL
Description: (§1) II/ The evidenced β-lactamase inhibiting activity potentialises the antibacterial activity of antibiotics of β-lactam type, and therefore leads to a synergic effect, as is shown by the results given below which express the minimum inhibitory concentration in vitro (MIC in μg/ml), against a certain number of pathogenic microorganisms, and of combinations of ceftazidime (<<CAZ >>) with formula (I) compounds at a concentration of 4 mg/l. Operations are as follows using the so-called micro-dilution method in liquid medium.
(§2) A series of β-lactam concentrations are prepared in the presence of a constant concentration (4 mg/l) of the product to be assayed, each is then seeded with various bacterial strains.
(§3) After 24-hour incubation in an oven at 37° C. growth inhibition is assessed via the lack of any bacterial growth, which allows determination of the minimum inhibitory concentrations (MICs) for each strain, expressed in milligrams/l.

E. coli TEM1 β-lactamase = target: T1, E. coli TEM1 β-lactamase (Escherichia coli, UniProt P62593); assay: β-lactamase inhibiting activity on isolated enzyme (Nitrocefin hydrolysis), TEM1; format: biochemical; conditions: 5 min pre-incubation, 100 μM Nitrocefin, pH 7.0, 37° C., mean of at least 2 experiments, read-out: IC50 enzyme inhibition
T1 construct: The β-lactamases are isolated from bacterial strains resistant to penicillins and cephalosporins; endogenous in cells; host or cells: E. coli 250HT21 (soluble fraction of French-press lysate)
T1 sequence (P62593 24-286 limits assumed): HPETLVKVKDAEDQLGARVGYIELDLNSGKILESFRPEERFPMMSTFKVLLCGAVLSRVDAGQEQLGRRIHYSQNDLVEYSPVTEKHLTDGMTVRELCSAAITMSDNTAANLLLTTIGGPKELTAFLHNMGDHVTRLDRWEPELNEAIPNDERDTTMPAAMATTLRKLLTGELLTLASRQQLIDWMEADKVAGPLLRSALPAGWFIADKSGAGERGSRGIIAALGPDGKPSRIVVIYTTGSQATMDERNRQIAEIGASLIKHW
Description: (§4) A. Preparation of Tem-1 and P99 β-lactamases
(§5) The β-lactamases are isolated from bacterial strains resistant to penicillins and cephalosporins (Tem 1 and P99 are respectively produced by E. coli 250HT21 and E.Cloacae 293 HT6).
(§6) The bacteria are cultured in 37g/l brain-heart infusion (DIFCO), at 37° C. They are harvested at the end of the exponential phase, cooled and centrifuged. The bacterial residues are dissolved in 50 mM sodium phosphate buffer pH 7.0 and again centrifuged. The bacteria are dissolved in two volumes of this same buffer and lysed using a French-Press held at 4° C. After centrifuging 1 h at 100 000g, at 4° C., the supernatants containing the soluble fraction of the bacterial extracts are collected and frozen to −80° C.
(§7) B. Determination β-lactamase Activity
(§8) The method uses Nitrocefin (OXOID) as substrate, a chromogenic cephalosporin, whose hydrolysis product by β-lactamases is red and absorbed at 485 nm.
(§9) β-lactamase activity is determined kinetically by measuring the variation in absorbance at 485 nm resulting from hydrolysis of the substrate on a plate spectrophotometer (Spectra Max Plus by Molecular Devices). Experiments are conducted at 37° C. The quantity of enzyme was normalized and measurements are taken at initial velocity.
(§10) C. Determination of β-Lactamase Inhibiting Activity
(§11) The measurements are taken with pre-incubation of the enzyme and of the inhibitor (5 min). The products are assayed at 11 concentrations. The reaction mixture contains 100 μM Nitrocefin and 50 mM sodium phosphate buffer, pH 7.0, and 0.1 mg/mL bovine serum albumin.
(§12) Hydrolysis velocities are measured with and without inhibitor. The inhibitor concentration is determined which inhibits 50% of the Nitrocefin hydrolysis reaction by the enzyme (IC50). Data is processed using GraFit software (Erithacus Software). The IC50 values are the mean of the IC50s obtained in at least 2 different experiments.

E. coli 250BE6 (TEM3) = assay: MIC of ceftazidime alone or with inhibitor, micro-dilution in liquid medium, strain 250BE6; format: cell-based; conditions: 24 h; for MIC of CAZ in combination with inhibitor (CAZ-Inhibitor): E. coli 250BE6 TEM3, inhibitor at constant 4 μg/mL
Description: as §1, §2, §3

[1] = tested on: C. freundii 261GR6 (AmpC); assay: MIC of ceftazidime alone or with inhibitor, micro-dilution in liquid medium, strain 261GR6; format: cell-based; conditions: 24 h; for MIC of CAZ in combination with inhibitor (CAZ-Inhibitor): inhibitor at constant 4 μg/mL
Description: as §1, §2, §3

[2] = target: T2, E. cloacae P99 β-lactamase (Enterobacter cloacae, UniProt P05364); assay: β-lactamase inhibiting activity on isolated enzyme (Nitrocefin hydrolysis), P99; format: biochemical; conditions: 5 min pre-incubation, 100 μM Nitrocefin, pH 7.0, 37° C., mean of at least 2 experiments, read-out: IC50 enzyme inhibition
T2 construct: The β-lactamases are isolated from bacterial strains resistant to penicillins and cephalosporins; endogenous in cells; host or cells: E. cloacae 293HT6 (soluble fraction of French-press lysate)
T2 sequence (P05364 21-381): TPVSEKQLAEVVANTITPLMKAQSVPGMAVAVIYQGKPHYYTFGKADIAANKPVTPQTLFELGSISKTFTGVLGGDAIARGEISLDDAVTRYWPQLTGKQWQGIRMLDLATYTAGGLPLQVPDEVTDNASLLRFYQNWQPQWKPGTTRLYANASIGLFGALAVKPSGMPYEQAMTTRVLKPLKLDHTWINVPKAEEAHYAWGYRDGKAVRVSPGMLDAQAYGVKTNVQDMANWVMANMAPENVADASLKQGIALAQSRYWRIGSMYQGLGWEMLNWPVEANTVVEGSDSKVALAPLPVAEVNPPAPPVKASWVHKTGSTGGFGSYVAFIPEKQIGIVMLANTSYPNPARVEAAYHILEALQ
Description: as §4, §5, §6, §7, §8, §9, §10, §11, §12

[3] = tested on: E. cloacae 293HT6 (P99 AmpC); assay: MIC of ceftazidime alone or with inhibitor, micro-dilution in liquid medium, strain 293HT6; format: cell-based; conditions: 24 h; for MIC of CAZ in combination with inhibitor (CAZ-Inhibitor): inhibitor at constant 4 μg/mL
Description: as §1, §2, §3

[4] = Enterobacter cloacae, no inhibitor, read-out: MIC CAZ alone

SMILES: NC(=O)[C@@H]1CC[C@@H]2CN1C(=O)N2OC(F)C(=O)O (mixture of isomers) [Example 2, trans-(1R,2S,5R)-6-(1-fluoro-2-hydroxy-2-oxoethoxy)-7-oxo-1,6-diazabicyclo[3.2.1]octane-2-carboxamide]
- MIC of CAZ in combination with inhibitor (CAZ-Inhibitor) (E. cloacae 293HT4 (AmpC)): 8 µg/mL
- IC50 (E. coli TEM1 β-lactamase): 2 nM
- MIC of CAZ in combination with inhibitor (CAZ-Inhibitor) (E. coli 250BE6 (TEM3)): 0.25 µg/mL
- MIC of CAZ in combination with inhibitor (CAZ-Inhibitor) [1]: 4 µg/mL
- IC50 [2]: 4600 nM
- MIC of CAZ in combination with inhibitor (CAZ-Inhibitor) [3]: 8 µg/mL

SMILES: CC(C)(O/N=C(\C(=O)N[C@@H]1C(=O)N2C(C(=O)[O-])=C(C[n+]3ccccc3)CS[C@H]12)c1csc(N)n1)C(=O)O [CAZ, ceftazidime, reference compound]
- MIC (E. cloacae 293HT4 (AmpC); [4]): > 32 µg/mL
- MIC (E. coli 250BE6 (TEM3); Escherichia coli, read-out: MIC CAZ alone): > 32 µg/mL
- MIC ([1]; Citrobacter freundii, no inhibitor, read-out: MIC CAZ alone): > 32 µg/mL
- MIC [3, 4]: > 32 µg/mL

SMILES: NC(=O)[C@@H]1CC[C@@H]2CN1C(=O)N2OCC(=O)O [Example 1, trans-(1R,2S,5R)-6-(2-hydroxy-2-oxoethoxy)-7-oxo-1,6-diazabicyclo[3.2.1]octane-2-carboxamide, reference compound]
- MIC of CAZ in combination with inhibitor (CAZ-Inhibitor) (E. cloacae 293HT4 (AmpC)): >32 µg/mL
- IC50 (E. coli TEM1 β-lactamase): 720 nM
- MIC of CAZ in combination with inhibitor (CAZ-Inhibitor) (E. coli 250BE6 (TEM3)): 2 µg/mL
- MIC of CAZ in combination with inhibitor (CAZ-Inhibitor) [1]: >32 µg/mL
- IC50 [2]: 54000 nM
- MIC of CAZ in combination with inhibitor (CAZ-Inhibitor) [3]: >32 µg/mL

SMILES: NC(=O)[C@@H]1CC[C@@H]2CN1C(=O)N2OC(F)(F)C(=O)O [Example 3, Sodium salt of trans-(1R,2S,5R)-6-(1,1-difluoro-2-hydroxy-2-oxoethoxy)-7-oxo-1,6-diazabicyclo[3.2.1]octane-2-carboxamide]
- MIC of CAZ in combination with inhibitor (CAZ-Inhibitor) (E. cloacae 293HT4 (AmpC)): 0.5 µg/mL
- IC50 (E. coli TEM1 β-lactamase): 0.8 nM
- MIC of CAZ in combination with inhibitor (CAZ-Inhibitor) (E. coli 250BE6 (TEM3)): 0.25 µg/mL
- MIC of CAZ in combination with inhibitor (CAZ-Inhibitor) [1]: 1 µg/mL
- IC50 [2]: 2200 nM
- MIC of CAZ in combination with inhibitor (CAZ-Inhibitor) [3]: 1 µg/mL
